Common to all, as to format: cell-based
For assay [1], the system named is B16F10 (malignant melanoma). The assay can be described thus: Antiproliferative activity (CCK-8 cell viability), B16F10. Conditions: Mus musculus, 72 h, read-out: Antiproliferative activity in cancerous cells, B16F10 (inhibition of cell growth); for inhibition at 3.3 µM: B16-F10, Compound concentration: 3.3 μM; for inhibition at 10 µM: B16-F10, Compound concentration: 10 μM; for inhibition at 30 µM: B16-F10, Compound concentration: 30 μM. An outline of the steps:
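B16F10 melanoma cells grown in DMEM with 10% FBS were plated in 96-well plates at 2,000-5,000 cells/well. After attachment they were exposed to compound in medium for 72 h at 37° C. CCK-8 solution (10 μL) was then added, and after 4 h at 37° C absorbance was read at 450 nm.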

Assay [2] deals with alpha-smooth muscle actin (α-SMA). As to the kind of experiment: Inhibition of TGF-β induced expression of alpha-smooth muscle actin (α-SMA) in CFSC cells (western blot). Particulars: compound at 10 μM, TGF-β (10 ng/mL), 24 hours, band intensity vs TGF-β only. An outline of the steps:
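Values are percent reduction of α-SMA band intensity relative to cells given TGF-β alone, quantified by Western blot densitometry with β-actin probed. Compound was applied at 10 μM alongside 10 ng/mL TGF-β to serum-free CFSC cultures for 24 h at 37 °C.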
(Immunoblotting shows a protein as a band on a membrane.)

For a further assay, the system named is HeLa (cervical cancer). As to the kind of experiment: Antiproliferative activity (CCK-8 cell viability), HeLa. Conditions: Homo sapiens, 72 h, read-out: Antiproliferative activity in cancerous cells, HELA (inhibition of cell growth); for inhibition at 3.3 µM: Compound concentration: 3.3 μM; for inhibition at 10 µM: Compound concentration: 10 μM; for inhibition at 30 µM: Compound concentration: 30 μM. An outline of the steps:
(§1)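 Cells grown in DMEM (HepG2, SW480), MEM (HeLa) or F-12K (A549), each with 10% FBS, then exposed to compound at 3.3, 10 or 30 μM for 72 h at 37 °C. CCK-8 absorbance at 450 nm; viability expressed as percent of DMSO-treated cells, graded as growth inhibition bands.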

For assay [3], the system named is A549 (lung adenocarcinoma). As to the kind of experiment: Antiproliferative activity (CCK-8 cell viability), A549. Particulars: Homo sapiens, 72 h, read-out: Antiproliferative activity in cancerous cells, A549 (inhibition of cell growth); for inhibition at 3.3 µM: Compound concentration: 3.3 μM; for inhibition at 10 µM: Compound concentration: 10 μM; for inhibition at 30 µM: Compound concentration: 30 μM. An outline of the steps: as §1

A further assay has as its system SW480 (colon cancer). The assay can be described thus: Antiproliferative activity (CCK-8 cell viability), SW480. Particulars: Homo sapiens, 72 h, read-out: Antiproliferative activity in cancerous cells, SW480 (inhibition of cell growth); for inhibition at 3.3 µM: Compound concentration: 3.3 μM; for inhibition at 10 µM: Compound concentration: 10 μM; for inhibition at 30 µM: Compound concentration: 30 μM. An outline of the steps: as §1

Assay [4] deals with A431 (epidermoid carcinoma). As to the kind of experiment: Antiproliferative activity (CCK-8 cell viability), A431. Conditions: Homo sapiens, 72 h, read-out: Antiproliferative activity in cancerous cells, A431 (inhibition of cell growth); for inhibition at 3.3 µM: A-431, Compound concentration: 3.3 μM; for inhibition at 10 µM: A-431, Compound concentration: 10 μM; for inhibition at 30 µM: A-431, Compound concentration: 30 μM. An outline of the steps:
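A431 epidermoid carcinoma cells grown in DMEM with 10% FBS were plated at 2,000-5,000 cells/well in 96-well plates. After attachment they were exposed to compound at 3.3 μM, 10 μM, or 30 μM for 72 h at 37° C. Viability was then assessed by CCK-8 against DMSO vehicle-treated wells.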

The test system of assay [5] is MDA-MB-231 (breast cancer). As to the kind of experiment: Antiproliferative activity (CCK-8 cell viability), MDA-MB-231. Particulars: Homo sapiens, 72 h, read-out: Antiproliferative activity in cancerous cells, MDA-MB-231 (inhibition of cell growth); for inhibition at 3.3 µM: Compound concentration: 3.3 μM; for inhibition at 10 µM: Compound concentration: 10 μM; for inhibition at 30 µM: Compound concentration: 30 μM. An outline of the steps:
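MDA-MB-231 breast cancer cells, grown in DMEM with 10% FBS, were plated in 96-well plates at 2,000-5,000 cells/well. Once attached, they were exposed to compound and incubated at 37° C. for 72 h. Viability was then measured with CCK-8 (10 μL per well, 4 h at 37° C.) by absorbance at 450 nm, relative to DMSO vehicle wells.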

Another assay relates to HepG2 (liver cancer). The assay can be described thus: Antiproliferative activity (CCK-8 cell viability), HepG2. Particulars: Homo sapiens, 72 h, read-out: Antiproliferative activity in cancerous cells, HepG2 (inhibition of cell growth); for inhibition at 3.3 µM: Compound concentration: 3.3 μM; for inhibition at 10 µM: Compound concentration: 10 μM; for inhibition at 30 µM: Compound concentration: 30 μM. An outline of the steps: as §1

A value given as a limit tells only on which side of the number the result lay.

For `CC1=C(CC(=O)O)c2cc(F)ccc2/C1=C/c1ccc(F)cc1OCc1ccccc1` [E5, (E)-2-(1-(2-(Benzyloxy)-4-fluorobenzylidene)-5-fluoro-2-methyl-1H-inden-3-yl)-acetic acid], the inhibition (as a rule, the percentage by which the read-out fell short of the control) at 3.3 µM in assay [1] was not below 50%; with HeLa (cervical cancer), less than 30%; in assay [3] it was less than 30%; in the assay with SW480 (colon cancer), 30 to 50%; in assay [4] it was less than 30%; in assay [5], 30 to 50%. Moreover, in the assay on HepG2 (liver cancer), the inhibition at 3.3 µM was in the range of 30 to 50%. The inhibition at 10 µM is not below 50% in assay [1]; more than 80% in assay [2]; not below 50% in the assay with HeLa (cervical cancer); not below 50% in assay [3]; 30 to 50% with SW480 (colon cancer); 30 to 50% in assay [4]. In addition, the inhibition at 10 µM in assay [5] was 30 to 50%; in the assay on HepG2 (liver cancer), not below 50%. Moreover, the inhibition at 30 µM (in assay [1]; in the assay on HeLa (cervical cancer); in assay [3]; with SW480 (colon cancer); in assay [4]; in assay [5]) was not below 50% each time. Moreover, in the assay with HepG2 (liver cancer), the inhibition at 30 µM was not below 50%.
As to `CC1=C(CC(=O)O)c2cc(F)ccc2/C1=C/c1cccc(COc2ccc(F)cc2F)c1` [E6, (E)-2-(1-(3-((2,4-Difluorophenoxy)methyl)benzylidene)-5-fluoro-2-methyl-1H-inden-3-yl)acetic acid], the inhibition at 3.3 µM in assay [1] was less than 30%; in the assay with HeLa (cervical cancer), less than 30%; in assay [3], less than 30%; with SW480 (colon cancer) it was less than 30%; in assay [4], less than 30%; in assay [5], 30 to 50%. Further, the inhibition at 3.3 µM in the assay on HepG2 (liver cancer) was less than 30%. The inhibition at 10 µM in assay [1] is 30 to 50%; in assay [2], more than 80%; with HeLa (cervical cancer), less than 30%; in assay [3] it was less than 30%; in the assay with SW480 (colon cancer), 30 to 50%; in assay [4], 30 to 50%. The figures for the inhibition at 10 µM (in assay [5]; with HepG2 (liver cancer)) were 30 to 50% and less than 30%, respectively. Moreover, the inhibition at 30 µM (in assay [1]; in the assay with HeLa (cervical cancer); in assay [3]; with SW480 (colon cancer); in assay [4]; in assay [5]) was not below 50% in each case. Moreover, the inhibition at 30 µM with HepG2 (liver cancer) is not below 50%.
Regarding `CC1=C(CC(=O)O)c2cc(F)cc(F)c2/C1=C/c1cccc(COc2ccccc2)c1` [E7, (E)-2-(5,7-Difluoro-2-methyl-1-(3-(phenoxymethyl)benzylidene)-1H-inden-3-yl)-acetic acid], the inhibition at 3.3 µM is less than 30% in assay [1]; not below 50% in the assay on HeLa (cervical cancer); not below 50% in assay [3]; not below 50% with SW480 (colon cancer); 30 to 50% in assay [4]; less than 30% in assay [5]. Further, the inhibition at 3.3 µM with HepG2 (liver cancer) fell in the range of 30 to 50%. Further, the inhibition at 10 µM in assay [1] is less than 30%; in assay [2] it was more than 80%; in the assay on HeLa (cervical cancer) it was not below 50%; in assay [3] it was not below 50%; with SW480 (colon cancer) it was not below 50%; in assay [4] it was not below 50%. Besides, the inhibition at 10 µM (in assay [5]; with HepG2 (liver cancer)) was not below 50% throughout. The inhibition at 30 µM (in assay [1]; with HeLa (cervical cancer); in assay [3]; in the assay with SW480 (colon cancer); in assay [4]; in assay [5]) was not below 50% throughout. The inhibition at 30 µM in the assay with HepG2 (liver cancer) is not below 50%.
Take `CC1=C(CCC(=O)O)c2ccccc2/C1=C/c1cccc(Oc2ccccc2)c1` [E10, (E)-3-(2-Methyl-1-(3-phenoxybenzylidene)-1H-inden-3-yl)propanoic acid]: the inhibition at 3.3 µM (in assay [1]; in the assay on HeLa (cervical cancer); in assay [3]; in the assay on SW480 (colon cancer); in assay [4]; in assay [5]) was less than 30% each time. Further, the inhibition at 3.3 µM in the assay on HepG2 (liver cancer) was less than 30%. The inhibition at 10 µM is less than 30% in assay [1]; less than 30% in assay [2]; less than 30% in the assay on HeLa (cervical cancer); 30 to 50% in assay [3]; less than 30% with SW480 (colon cancer); less than 30% in assay [4]. For the same molecule, the inhibition at 10 µM (in assay [5]; in the assay with HepG2 (liver cancer)) was less than 30% throughout. Further, the inhibition at 30 µM is 30 to 50% in assay [1]; less than 30% in the assay with HeLa (cervical cancer); not below 50% in assay [3]; 30 to 50% with SW480 (colon cancer); less than 30% in assay [4]; not below 50% in assay [5]. The inhibition at 30 µM in the assay with HepG2 (liver cancer) was less than 30%.
`CC1=C(CC(=O)O)c2c(F)ccc(F)c2/C1=C/c1ccc(C(C)C)cc1` [E12, (E)-2-(4,7-Difluoro-1-(4-isopropylbenzylidene)-2-methyl-1H-inden-3-yl)acetic acid]: the inhibition at 3.3 µM in assay [1] is 30 to 50%; in the assay with HeLa (cervical cancer), less than 30%; in assay [3], less than 30%; in the assay on SW480 (colon cancer) it was less than 30%; in assay [4] it was less than 30%; in assay [5], not below 50%. Also, in the assay on HepG2 (liver cancer), the inhibition at 3.3 µM was less than 30%. Also, the inhibition at 10 µM in assay [1] was not below 50%; in assay [2], less than 30%; in the assay on HeLa (cervical cancer) it was 30 to 50%; in assay [3], 30 to 50%; in the assay on SW480 (colon cancer), 30 to 50%; in assay [4] it was 30 to 50%. The values for the inhibition at 10 µM (in assay [5]; in the assay on HepG2 (liver cancer)) were not below 50% and less than 30%, respectively. Further, the inhibition at 30 µM (in assay [1]; in the assay with HeLa (cervical cancer); in assay [3]; in the assay with SW480 (colon cancer); in assay [4]; in assay [5]) was not below 50% throughout. The inhibition at 30 µM with HepG2 (liver cancer) fell in the range of 30 to 50%.

(Values after patent US20260184663A1, “INDENE COMPOUNDS, PHARMACEUTICAL COMPOSITIONS THEREOF, AND THEIR THERAPEUTIC APPLICATIONS” (NucMito Pharmaceuticals co. Ltd., priority 2022, published 2026).)
